Activity calls are given as the source filed them. The calls are words filed in the database; no cut-off is given here.
Experiments:
[1] = molecular target: T1, Mitogen-activated protein kinase 14 (Homo sapiens, UniProt Q16539)
[2] = molecular target: T2, Casein kinase I isoform epsilon (Homo sapiens, UniProt P49674); test: Inhibition of human CK1epsilon transfected in HEK293 cells at 10 uM using NanoBRET NanoGlo substrate incubated for 2 hrs in presence of K8 tracer by NanoBRET assay relative to control; type: cell-based
Target sequence in this assay (P49674 whole entry, looked up, canonical isoform): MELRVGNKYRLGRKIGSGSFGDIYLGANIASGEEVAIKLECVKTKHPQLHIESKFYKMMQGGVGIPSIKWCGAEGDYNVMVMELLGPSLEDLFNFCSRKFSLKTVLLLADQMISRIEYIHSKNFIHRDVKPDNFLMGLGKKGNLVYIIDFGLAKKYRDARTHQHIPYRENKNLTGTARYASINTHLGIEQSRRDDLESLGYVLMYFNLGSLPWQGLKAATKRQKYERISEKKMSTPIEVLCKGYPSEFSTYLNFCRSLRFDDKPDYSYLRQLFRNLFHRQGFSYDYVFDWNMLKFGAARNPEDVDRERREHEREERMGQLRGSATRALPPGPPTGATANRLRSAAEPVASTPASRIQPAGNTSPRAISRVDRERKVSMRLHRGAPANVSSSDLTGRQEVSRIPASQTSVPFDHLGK

[3] = molecular target: T3, Casein kinase I isoform delta (Homo sapiens, UniProt P48730); type: cell-based, HEK293
Target sequence in this assay (P48730 whole entry, canonical isoform): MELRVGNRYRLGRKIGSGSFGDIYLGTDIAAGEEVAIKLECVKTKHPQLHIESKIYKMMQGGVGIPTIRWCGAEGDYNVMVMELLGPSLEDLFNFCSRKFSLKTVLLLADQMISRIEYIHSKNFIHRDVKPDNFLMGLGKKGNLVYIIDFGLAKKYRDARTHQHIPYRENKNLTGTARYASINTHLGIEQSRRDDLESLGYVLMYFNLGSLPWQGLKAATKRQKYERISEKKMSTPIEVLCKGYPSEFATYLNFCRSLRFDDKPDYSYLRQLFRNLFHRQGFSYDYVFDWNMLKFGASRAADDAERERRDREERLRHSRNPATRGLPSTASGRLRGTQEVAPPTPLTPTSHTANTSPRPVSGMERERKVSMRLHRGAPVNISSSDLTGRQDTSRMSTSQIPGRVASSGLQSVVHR

[4] = molecular target: T2, Casein kinase I isoform epsilon; type: cell-based, HEK293
Target sequence in this assay (P49674 whole entry, canonical isoform): as the sequence (P49674 whole entry, looked up, canonical isoform) above

[5] = molecular target: T4, Serine/threonine protein kinase YCK2 (Candida albicans (strain SC5314 / ATCC MYA-2876) (Yeast), UniProt A0A1D8PKB4)
T4 sequence (A0A1D8PKB4 whole entry): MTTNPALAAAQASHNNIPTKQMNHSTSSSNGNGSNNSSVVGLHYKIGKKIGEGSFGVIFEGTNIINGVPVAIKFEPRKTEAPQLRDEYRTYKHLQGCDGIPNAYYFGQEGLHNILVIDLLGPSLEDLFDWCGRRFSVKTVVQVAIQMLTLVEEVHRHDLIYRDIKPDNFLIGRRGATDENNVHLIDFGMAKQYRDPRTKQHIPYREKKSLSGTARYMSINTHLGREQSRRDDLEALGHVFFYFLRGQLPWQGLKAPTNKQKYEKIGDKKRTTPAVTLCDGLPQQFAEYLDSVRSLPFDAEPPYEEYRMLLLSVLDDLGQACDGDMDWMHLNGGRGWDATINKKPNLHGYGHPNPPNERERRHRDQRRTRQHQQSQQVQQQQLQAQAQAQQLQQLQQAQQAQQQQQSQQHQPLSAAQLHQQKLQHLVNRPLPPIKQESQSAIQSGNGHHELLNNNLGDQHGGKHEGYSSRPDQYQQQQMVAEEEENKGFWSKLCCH

[6] = molecular target: Casein kinase I isoform alpha (Homo sapiens, UniProt P48729)
[7] = molecular target: T4, Serine/threonine protein kinase YCK2; type: cell-based, HEK293
[8] = molecular target: T1, Mitogen-activated protein kinase 14; test: Inhibition of human P38alpha transfected in HEK293 cells using NanoBRET NanoGlo substrate incubated for 2 hrs in presence of K4 tracer by NanoBRET assay; type: cell-based
[9] = system: Candida albicans; test: Antifungal activity against Candida albicans harboring cdr2mutant/mutant assessed as inhibition of fungal growth; type: functional, organism-based
[10] = system: Candida albicans; test: Antifungal activity against Candida albicans harboring cdr1mutant/mutant assessed as inhibition of fungal growth; type: functional, organism-based
[11] = system: Candida albicans; test: Antifungal activity against Candida albicans harboring tetO-ERG6/erg6mutant assessed as inhibition of fungal growth in presence of doxycyclin; type: functional, organism-based
[12] = system: Candida albicans; test: Binding affinity to Candida albicans Hog1 assessed as target engagement at 0.1 to 10 uM by MIB/MS competition analysis; settings: dose 0.1-10 µM
[13] = system: Candida albicans; test: Antifungal activity against Candida albicans harboring mdr1mutant/mutant assessed as inhibition of fungal growth; type: functional, organism-based
[14] = system: Candida albicans; test: Binding affinity to Candida albicans Hrr25 assessed as target engagement at 0.1 to 10 uM by MIB/MS competition assay; settings: dose 0.1-10 µM
[15] = system: Candida albicans; test: Antifungal activity against Candida albicans harboring tetO-YCK2/yck2 mutant assessed as inhibition of fungal growth at 100 uM in absence of doxycyclin; type: functional, organism-based
[16] = system: Candida albicans; test: Antifungal activity against wild type Candida albicans CaSS1 at 100 uM; type: functional, organism-based
[17] = system: Candida albicans; test: Antifungal activity against Candida albicans harboring flu1mutant/mutant assessed as inhibition of fungal growth; type: functional, organism-based
[18] = system: Candida albicans; test: Antifungal activity against Candida albicans harboring tetO-YCK2/yck2 mutant assessed as inhibition of fungal growth at 100 uM in presence of doxycyclin; type: functional, organism-based
[19] = molecular target: Receptor-interacting serine/threonine-protein kinase 2 (Homo sapiens) (UniProt O43353); test: Binding affinity to human RIPK2 transfected in HEK293 cells at 0.1 to 10 uM by MIB/MS competition assay; type: cell-based; settings: dose 0.1-10 µM
[20] = system: HEK293; settings: Candida albicans, dose 10.0 µM
[21] = molecular target: T2, Casein kinase I isoform epsilon; test: Binding affinity to human CK1epsilon transfected in HEK293 cells at 0.1 to 10 uM by MIB/MS competition assay; type: cell-based; settings: dose 0.1-10 µM
Target sequence in this assay (P49674 whole entry, looked up, canonical isoform): as the sequence (P49674 whole entry, looked up, canonical isoform) above

[22] = system: HEK293; settings: Candida albicans, dose 10.0 µM; remark: listed apart in the source
[23] = molecular target: T5, Serine/threonine protein kinase YCK2 (Candida albicans (strain SC5314 / ATCC MYA-2876) (Yeast)) (UniProt A0A1D8PKB4); settings: HEK293, dose 10.0 µM
T5 sequence (whole entry): T4 sequence (A0A1D8PKB4 whole entry)

[24] = molecular target: Mitogen-activated protein kinase 11 (Homo sapiens) (UniProt Q15759); test: Binding affinity to human P38beta transfected in HEK293 cells at 0.1 to 10 uM by MIB/MS competition assay; type: cell-based; settings: dose 0.1-10 µM
[25] = molecular target: Serine/threonine-protein kinase N3 (Homo sapiens) (UniProt Q6P5Z2); test: Binding affinity to human PKN3 transfected in HEK293 cells at 0.1 to 10 uM by MIB/MS competition assay; type: cell-based; settings: dose 0.1-10 µM
[26] = system: HEK293; settings: Candida albicans, dose 10.0 µM; remark: listed apart in the source
[27] = molecular target: T5, Serine/threonine protein kinase YCK2 (Candida albicans (strain SC5314 / ATCC MYA-2876) (Yeast)); settings: HEK293, dose 10.0 µM; remark: listed apart in the source
[28] = molecular target: T3, Casein kinase I isoform delta; test: Binding affinity to human CK1 delta transfected in HEK293 cells at 0.1 to 10 uM by MIB/MS competition assay; type: cell-based; settings: dose 0.1-10 µM
Target sequence in this assay (P48730 whole entry, looked up, canonical isoform): as the sequence (P48730 whole entry, canonical isoform) above

[29] = molecular target: T6, Activin receptor type-1B (Homo sapiens) (UniProt P36896); test: Binding affinity to human ALK4 transfected in HEK293 cells at 0.1 to 10 uM by MIB/MS competition assay; type: cell-based; settings: dose 0.1-10 µM
T6 sequence (whole entry): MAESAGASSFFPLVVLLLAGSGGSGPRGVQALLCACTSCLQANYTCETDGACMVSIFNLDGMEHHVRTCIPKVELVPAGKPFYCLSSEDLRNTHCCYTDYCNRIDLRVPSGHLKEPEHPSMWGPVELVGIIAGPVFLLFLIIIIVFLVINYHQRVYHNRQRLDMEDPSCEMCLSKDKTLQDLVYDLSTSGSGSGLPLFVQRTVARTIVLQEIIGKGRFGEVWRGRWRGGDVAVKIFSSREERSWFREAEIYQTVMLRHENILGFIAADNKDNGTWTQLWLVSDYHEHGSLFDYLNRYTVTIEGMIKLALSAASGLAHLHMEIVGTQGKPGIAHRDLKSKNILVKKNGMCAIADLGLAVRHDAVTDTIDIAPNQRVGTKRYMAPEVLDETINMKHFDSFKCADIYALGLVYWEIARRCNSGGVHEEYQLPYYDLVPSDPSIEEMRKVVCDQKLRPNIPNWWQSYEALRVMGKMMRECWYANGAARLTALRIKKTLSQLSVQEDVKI

[30] = molecular target: Casein kinase I isoform gamma-2 (Homo sapiens) (UniProt P78368); test: Binding affinity to human CK1gamma 2 transfected in HEK293 cells at 0.1 to 10 uM by MIB/MS competition assay; type: cell-based; settings: dose 0.1-10 µM
[31] = molecular target: T5, Serine/threonine protein kinase YCK2 (Candida albicans (strain SC5314 / ATCC MYA-2876) (Yeast)); test: Binding affinity to Candida albicans Yck2 assessed as target engagement by MIB/MS competition assay

T1 sequence (Q16539 whole entry, canonical isoform): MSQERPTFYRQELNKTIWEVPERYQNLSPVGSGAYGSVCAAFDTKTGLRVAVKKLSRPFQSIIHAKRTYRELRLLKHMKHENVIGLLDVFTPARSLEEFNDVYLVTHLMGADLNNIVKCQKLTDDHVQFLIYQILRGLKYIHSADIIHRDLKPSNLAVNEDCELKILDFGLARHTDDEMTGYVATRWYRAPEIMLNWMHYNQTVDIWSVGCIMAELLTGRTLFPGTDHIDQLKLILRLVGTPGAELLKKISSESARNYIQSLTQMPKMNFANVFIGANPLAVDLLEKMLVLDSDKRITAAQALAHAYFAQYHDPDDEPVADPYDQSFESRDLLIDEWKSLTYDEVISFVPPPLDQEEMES
Chain of Casein kinase I isoform alpha (P48729 whole entry, canonical isoform): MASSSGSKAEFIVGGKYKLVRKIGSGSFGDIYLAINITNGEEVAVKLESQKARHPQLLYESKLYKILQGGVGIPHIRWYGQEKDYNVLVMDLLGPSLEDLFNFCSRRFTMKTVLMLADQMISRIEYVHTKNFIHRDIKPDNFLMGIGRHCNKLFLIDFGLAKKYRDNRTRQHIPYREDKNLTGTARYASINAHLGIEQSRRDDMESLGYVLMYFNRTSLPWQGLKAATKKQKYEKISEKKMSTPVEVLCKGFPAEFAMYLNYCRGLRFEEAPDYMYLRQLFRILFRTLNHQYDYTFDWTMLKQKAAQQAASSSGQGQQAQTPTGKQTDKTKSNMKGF
Chain of Receptor-interacting serine/threonine-protein kinase 2 (Homo sapiens) (O43353 whole entry): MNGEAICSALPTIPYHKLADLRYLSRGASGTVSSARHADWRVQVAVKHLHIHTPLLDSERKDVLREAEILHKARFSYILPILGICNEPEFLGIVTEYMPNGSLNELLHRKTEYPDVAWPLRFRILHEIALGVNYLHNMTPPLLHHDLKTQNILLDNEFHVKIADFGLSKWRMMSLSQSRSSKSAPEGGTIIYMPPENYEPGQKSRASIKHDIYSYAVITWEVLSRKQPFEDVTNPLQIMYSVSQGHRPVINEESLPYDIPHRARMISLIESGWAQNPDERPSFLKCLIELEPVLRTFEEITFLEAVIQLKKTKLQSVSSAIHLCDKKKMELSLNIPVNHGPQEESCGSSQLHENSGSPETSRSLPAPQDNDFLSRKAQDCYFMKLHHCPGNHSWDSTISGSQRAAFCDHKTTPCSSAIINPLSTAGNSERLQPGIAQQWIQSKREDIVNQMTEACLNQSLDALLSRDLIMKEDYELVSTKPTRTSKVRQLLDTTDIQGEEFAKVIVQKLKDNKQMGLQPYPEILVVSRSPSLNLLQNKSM
Chain of Serine/threonine-protein kinase N3 (Homo sapiens) (Q6P5Z2 whole entry, looked up): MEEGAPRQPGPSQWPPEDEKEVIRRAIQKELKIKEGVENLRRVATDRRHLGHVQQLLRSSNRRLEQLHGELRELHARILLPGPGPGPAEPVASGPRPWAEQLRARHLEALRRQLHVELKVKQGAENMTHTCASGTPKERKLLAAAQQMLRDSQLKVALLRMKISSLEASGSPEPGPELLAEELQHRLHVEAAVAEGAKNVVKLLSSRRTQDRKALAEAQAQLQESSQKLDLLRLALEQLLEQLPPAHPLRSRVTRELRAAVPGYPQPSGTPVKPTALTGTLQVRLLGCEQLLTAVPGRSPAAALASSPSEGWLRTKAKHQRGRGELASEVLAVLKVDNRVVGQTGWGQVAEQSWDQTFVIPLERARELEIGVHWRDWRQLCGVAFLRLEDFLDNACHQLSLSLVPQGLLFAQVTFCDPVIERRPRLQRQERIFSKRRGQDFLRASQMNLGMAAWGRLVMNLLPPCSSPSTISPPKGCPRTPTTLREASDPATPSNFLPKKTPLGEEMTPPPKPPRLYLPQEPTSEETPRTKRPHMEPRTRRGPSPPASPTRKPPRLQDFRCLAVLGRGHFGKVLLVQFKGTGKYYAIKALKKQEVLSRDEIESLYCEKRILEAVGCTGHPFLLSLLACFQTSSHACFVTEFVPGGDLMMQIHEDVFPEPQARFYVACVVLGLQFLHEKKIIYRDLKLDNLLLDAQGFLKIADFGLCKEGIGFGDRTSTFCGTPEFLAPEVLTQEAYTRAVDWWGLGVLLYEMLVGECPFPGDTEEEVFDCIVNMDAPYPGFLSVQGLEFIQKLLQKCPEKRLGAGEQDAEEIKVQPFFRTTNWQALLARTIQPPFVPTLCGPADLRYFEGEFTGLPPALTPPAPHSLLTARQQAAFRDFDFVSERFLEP
Chain of Mitogen-activated protein kinase 11 (Homo sapiens) (Q15759 whole entry): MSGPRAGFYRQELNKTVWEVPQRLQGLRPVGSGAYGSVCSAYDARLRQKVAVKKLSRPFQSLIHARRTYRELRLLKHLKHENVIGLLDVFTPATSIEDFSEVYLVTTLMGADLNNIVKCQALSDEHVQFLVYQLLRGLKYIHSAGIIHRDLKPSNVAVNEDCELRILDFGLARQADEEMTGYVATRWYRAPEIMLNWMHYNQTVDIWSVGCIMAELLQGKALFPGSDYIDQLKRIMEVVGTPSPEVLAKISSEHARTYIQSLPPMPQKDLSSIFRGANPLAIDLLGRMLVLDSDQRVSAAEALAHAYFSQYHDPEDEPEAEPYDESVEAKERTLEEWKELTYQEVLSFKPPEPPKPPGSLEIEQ
Chain of Casein kinase I isoform gamma-2 (Homo sapiens) (P78368 whole entry, looked up, canonical isoform): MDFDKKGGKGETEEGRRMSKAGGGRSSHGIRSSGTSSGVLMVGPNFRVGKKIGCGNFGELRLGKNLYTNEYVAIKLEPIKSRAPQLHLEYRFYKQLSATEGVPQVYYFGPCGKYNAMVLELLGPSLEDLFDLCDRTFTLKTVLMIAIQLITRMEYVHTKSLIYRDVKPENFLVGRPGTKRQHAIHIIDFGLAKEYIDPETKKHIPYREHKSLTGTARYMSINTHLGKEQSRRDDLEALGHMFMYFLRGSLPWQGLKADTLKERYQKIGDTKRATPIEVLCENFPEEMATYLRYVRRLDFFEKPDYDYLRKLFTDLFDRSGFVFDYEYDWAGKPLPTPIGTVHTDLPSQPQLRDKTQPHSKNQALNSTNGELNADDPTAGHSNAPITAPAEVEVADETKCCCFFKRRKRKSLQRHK

Row | SMILES | IC50 [1] | inhibition [2] | IC50 [3] | IC50 [4] | IC50 [5] | IC50 [7] | IC50 [8] | further results
1 | CC(C)[C@H](CO)Nc1nc(Nc2cc(N)cc(Cl)c2)c2ncn(C(C)C)c2n1 [AMINOPURVALANOL] | > 20000 nM | 25% | > 10000 nM | > 10000 nM | > 8000 nM | > 10000 nM | – | IC50 [6]: > 20000 nM
2 | CNC(=O)c1nn(C)c2c1C(C)(C)Cc1cnc(Nc3ccc(N4CCN(C)CC4)cc3)nc1-2 [MILCICLIB] | > 20000 nM | – | 200 nM | – | 770 nM | 1100 nM | – | IC50 [6]: 250 nM
3 | CN1CCC(F)(Cn2cnc(-c3ccc(F)cn3)c2-c2ccnc3[nH]ccc23)CC1 | – | – | – | 82 nM | 640 nM | > 10000 nM | – | IC50 [6]: 14 nM
4 | c1ccc(-c2n[nH]cc2-c2ccnc3ccccc23)nc1 | 2600 nM | < 25% | 2800 nM | – | – | – | 760 nM | Activity [9]: inactive; Activity [10]: inactive; Activity [11]: Active; Activity [12]: inactive; Activity [13]: inactive; Activity [14]: Active; Activity [15]: Active; Activity [16]: Active; Weakly Active; Activity [17]: inactive; Activity [18]: Active
5 | Cc1ccc2c(-c3ccncc3)c(-c3ccc(F)cc3)nn2c1 | – | – | 230 nM | 780 nM | – | – | 44 nM | –
6 | N#Cc1ccn2c(-c3ccncc3)c(-c3ccc(F)cc3)nc2c1 | – | 25% | – | > 10000 nM | – | – | – | Activity [19]: Active; log2FC [20]: -1; Activity [21]: Active; log2FC [22]: -1.4; log2FC [23]: -3.5; Activity [24]: Active; Activity [25]: Active; log2FC [26]: -2.2; log2FC [27]: -2.2; Activity [28]: Active
7 | Nc1nc(Nc2ccc(S(N)(=O)=O)cc2)n(C(=S)Nc2c(F)cccc2F)n1 | > 20000 nM | 25% | – | > 10000 nM | 470 nM | > 10000 nM | – | IC50 [6]: > 20000 nM
8 | CC(C)(C)n1nc(Cc2cccc3ccccc23)c2c(N)ncnc21 | 750 nM | – | > 10000 nM | 14 nM | > 8000 nM | – | 1600 nM | –
9 | CC(=O)c1cnc2ccc(-c3cc(Cl)c(O)c(Cl)c3)nc2c1N[C@H]1CC[C@H](CN(C)C)CC1 | 40 nM | – | – | – | – | 660 nM | > 10000 nM | –
10 | CC(C)n1nc(-c2cc3cc(O)ccc3[nH]2)c2c(N)ncnc21 | – | > 50% | – | – | – | – | – | –
11 | CC(C)(C)c1cnc(CSc2cnc(NC(=O)C3CCNCC3)s2)o1 [BMS-387032] | – | 25% | – | – | > 8000 nM | > 10000 nM | – | –
12 | Cc1occc1-c1nc(N)c(OC[C@@H](N)Cc2c[nH]c3ccccc23)cc1-c1cc2c(C)n[nH]c2cn1 | – | – | 1400 nM | 620 nM | 180 nM | 3700 nM | – | –
13 | N#Cc1ccc2c(-c3ccncc3)c(-c3ccc(F)cc3)nn2c1 | – | 25% | – | > 10000 nM | – | – | 80 nM | Activity [19]: Active; Activity [21]: Active; Activity [29]: Active; Activity [30]: Active; Activity [25]: Active; Activity [28]: Active
14 | Cc1nc(N)sc1-c1ccnc(Nc2ccc(N3CCOCC3)cc2)n1 [CYC-116] | > 20000 nM | > 50% | – | ~10000 nM | – | > 10000 nM | – | –
15 | C[C@@H](N)c1ccc(C(=O)Nc2ccnc3[nH]ccc23)cc1 [Y-39983] | > 20000 nM | 25% | > 10000 nM | > 10000 nM | > 8000 nM | > 10000 nM | – | –
16 | Cc1n[nH]c2ccc(-c3cc(OC[C@@H](N)Cc4ccccc4)cnc3-c3ccoc3)cc12 | – | – | 100 nM | 200 nM | – | 100 nM | – | Activity [31]: Dose-dependent-effect
